# Key:
# HIV-2 IN E92Q = HIV-2 IN E92Q (Human immunodeficiency virus type 2 subtype B, UniProt Q89928, E1260Q/I1218V/I1301V/I1372V/M1455R/N1185G/N1438H/R1202K/R1392Q/T1348V/T1383A/V1460M); conditions: E92Q in N1 background; 200 nM IN
# Protocol: (§1) Mutations were introduced in the HIV-2 N1 background by mutagenesis. […] Activity is expressed as a % of control without drug. Experiments were performed two times.
# (§2) The IN coding sequences from the viruses isolated from the plasma of HIV-2-infected patients N1 to N3 and T1 to T7 were amplified by PCR and sequenced according to a previously described procedure. PCR products corresponding to the entire IN sequence were amplified again with the following specific primers containing NdeI and BamH I restriction sites at their 5' ends. Primer 1: N1, N2, T1, T2, 5'-[…]-3'; N3, 5'-[…]-3'; T3-T7, 5'-[…]-3'. Primers 2: N1, 5'-[…]-3'; N2, 5'-[…]-3'; N3, 5'-[…] The amplicons were then ligated into the TA cloning plasmid pGEM-T easy (Promega, Madison, USA). Single (E92Q, T97A, G140S, Q148R, Y143C, N155H) and double (G140S/Q148R, Y143C/N155H, E92Q/Y143C and T97A/Y143C) mutations were introduced into the HIV-2 wild-type N1 sequence by mutagenesis using the QuickChange II site-directed mutagenesis kit (Agilent Technologies, Santa Clara, USA) according to the manufacturer instructions. NdeI - BamH fragments covering the IN coding sequence were then inserted into the expression vector pET-15b.
# (§3) The activity of wild-type and mutated INs was determined in vitro, as previously described. Briefly, oligonucleotides (ODN) mimicking the end of the U5 long terminal repeat of the viral genome were radiolabeled with T4 polynucleotide kinase (Biolabs, Ipswich, USA) and [γ-^32P] ATP (3,000 Ci/mmol) (Amersham, GE Healthcare, USA), then purified on a Sephadex G-10 column (GE Healthcare, USA). Double-stranded ODNs were obtained by mixing equimolar amounts of complementary strands in the presence of 100 mM NaCl.
# HIV-2 IN G140S/Q148R = HIV-2 IN G140S/Q148R (Human immunodeficiency virus type 2 subtype B, UniProt Q89928, G1308S/I1218V/I1301V/I1372V/M1455R/N1185G/N1438H/Q1316R/R1202K/R1392Q/T1348V/T1383A/V1460M); conditions: G140S/Q148R in N1 background; 200 nM IN
# Protocol: as §1, §2, §3
# HIV-2 IN N155H = HIV-2 IN N155H (Human immunodeficiency virus type 2 subtype B, UniProt Q89928, I1218V/I1301V/I1372V/M1455R/N1185G/N1323H/N1438H/R1202K/R1392Q/T1348V/T1383A/V1460M); conditions: N155H in N1 background; 200 nM IN
# Protocol: as §1, §2, §3
# HIV-2 IN T97A/Y143C = HIV-2 IN T97A/Y143C (Human immunodeficiency virus type 2 subtype B, UniProt Q89928, I1218V/I1301V/I1372V/M1455R/N1185G/N1438H/R1202K/R1392Q/T1265A/T1348V/T1383A/V1460M/Y1311C); conditions: T97A/Y143C in N1 background; 200 nM IN
# Protocol: as §1, §2, §3
# HIV-2 IN Y143C = HIV-2 IN Y143C (Human immunodeficiency virus type 2 subtype B, UniProt Q89928, I1218V/I1301V/I1372V/M1455R/N1185G/N1438H/R1202K/R1392Q/T1348V/T1383A/V1460M/Y1311C); conditions: Y143C in N1 background; 200 nM IN
# Protocol: as §1, §2, §3
structure (smiles),measurement,setting,value
"Cc1nnc(C(=O)NC(C)(C)c2nc(C(=O)NCc3ccc(F)cc3)c(O)c(=O)n2C)o1 [RAL, raltegravir]","resistance to RAL, strand transfer",HIV-2 IN E92Q,did not confer significant resistance
same,"resistance to RAL, strand transfer",HIV-2 IN G140S/Q148R,highly resistant
same,"resistance to RAL, strand transfer",HIV-2 IN N155H,high level of resistance
same,"resistance to RAL, strand transfer",HIV-2 IN T97A/Y143C,did not lead to detectable IN resistance
same,"resistance to RAL, strand transfer",HIV-2 IN Y143C,did not lead to significant resistance

# Reference: paper PMC3170264 (Retrovirology, 2011)
